Reference: PMC9268515, “UGT1A1 and UGT1A9 Are Responsible for Phase II Metabolism of Tectorigenin and Irigenin In Vitro” (Molecules, 2022)

Target: T1, UGT1A9 (Homo sapiens, UniProt O60656)
T1 construct: purchased BD Biosciences (Woburn, MA, USA)
T1 sequence (O60656 26-530): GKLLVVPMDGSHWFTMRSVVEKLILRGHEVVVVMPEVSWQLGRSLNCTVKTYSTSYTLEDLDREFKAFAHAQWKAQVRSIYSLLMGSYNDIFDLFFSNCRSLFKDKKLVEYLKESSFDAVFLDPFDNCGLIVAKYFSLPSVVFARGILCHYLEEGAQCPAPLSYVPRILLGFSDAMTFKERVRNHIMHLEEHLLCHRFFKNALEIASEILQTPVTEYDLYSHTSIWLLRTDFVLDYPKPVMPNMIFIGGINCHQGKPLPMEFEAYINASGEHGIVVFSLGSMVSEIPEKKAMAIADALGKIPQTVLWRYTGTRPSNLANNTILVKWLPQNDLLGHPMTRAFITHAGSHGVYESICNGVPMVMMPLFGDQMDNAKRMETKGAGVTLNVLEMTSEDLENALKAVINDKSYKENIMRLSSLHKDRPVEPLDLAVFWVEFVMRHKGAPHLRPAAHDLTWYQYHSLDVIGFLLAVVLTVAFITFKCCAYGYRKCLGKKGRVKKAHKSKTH
Assay: Recombinant UGT reaction screening and enzyme kinetics, UGT1A9
Format: in vitro ADME
Conditions: recombinant UGT1A9 screening
Method: UGT reaction screening of tectorigenin and irigenin was conducted using nine commercially available human UGTs (UGT1A1/1A3/1A4/1A6/1A9/2B4/2B7/2B15/2B17). Furthermore, we studied the enzymatic kinetic characteristics of tectorigenin and irigenin using UGT1A1 and UGT1A9. Six concentrations of tectorigenin and irigenin (1, 3, 10, 30, 100, and 300 μM) were incubated in triplicate in order to obtain the enzyme kinetic characteristics of tectorigenin and irigenin glucuronide.
For both HLMs and UGTs, metabolic kinetic analysis was performed by fitting the data to the Michaelis-Menten model. The Km and Vmax of enzymes were calculated as follows:(3) V=Vmax×[S]/Km+[S], where [S] is the substrate concentration. All results were shown as the mean ± standard error (SE). Differences among different groups were compared using one-way analysis of variance. A p-value < 0.05 was considered statistically significant.

SMILES: COc1c(O)cc2occ(-c3ccc(O)cc3)c(=O)c2c1O [Tectorigenin, 5,7,4′-trihydroxyl-6-methoxyl isoflavone]
- Activity in glucuronidation of tectorigenin: highest activity
